Structures are written as SMILES.

The term IC50 denotes the concentration that inhibits the measured activity by half. A low value points to inhibition by little substance.

The subject of test [1] is HCV replicon genotype 1b. In words: microbe, parasite or virus in culture. The class given is cell-based. As to conditions: Hepatitis C virus, 96 h, HCV genotype 1b replicon cells, 96 hours incubation, NS3/4A ELISA readout. On the technique in general: Replicon systems follow genome replication, usually without infectious particles.
In test [2] the test system is HCV replicon genotype 1a. The experiment in a line: microbe, parasite or virus in culture. As to conditions: Hepatitis C virus, 96 h, HCV genotype 1a replicon cells, 96 hours incubation, NS3/4A ELISA readout. The class given is cell-based.

On to `CNC(=O)c1c(-c2ccc(F)cc2)oc2cc(N(C)S(C)(=O)=O)c(-c3cc4c(cn3)ncn4-c3ccc(F)cc3)cc12` [Compound 46], for which the IC50 in test [1] amounted to 0.0107 µM; in test [2] it was 0.0745 µM.
Turning to `CNC(=O)c1c(-c2ccc(F)cc2)oc2cc(N(C)S(C)(=O)=O)c(-c3cnc4ccn(-c5ccc(F)cc5)c4c3)cc12` [Compound 47, 2-(4-fluorophenyl)-5-(1-(4-fluorophenyl)-1H-pyrrolo[3,2-b]pyridin-6-yl)-N-methyl-6-(N-methylmethylsulfonamido)benzofuran-3-carboxamide], the results for the concentration for half-maximal inhibition (IC50) in test [1] and in test [2] were 0.0015 µM and 0.0021 µM, respectively.
The like results for `CNC(=O)c1c(-c2ccc(F)cc2)oc2cc(N(C)S(C)(=O)=O)c(-c3cnc4ccn(-c5ccc(C(F)(F)F)cc5)c4c3)cc12` [Compound 48] were, in that order, 0.0033 µM and 0.0026 µM.
In the same order, the values of `CNC(=O)c1c(-c2ccc(F)cc2)oc2cc(N(C)S(C)(=O)=O)c(-c3cnc4ccn(-c5ccc(C#N)cc5)c4c3)cc12` [Compound 49] are 0.0033 µM and 0.0083 µM.
In the same order, the values of `CNC(=O)c1c(-c2ccc(F)cc2)oc2cc(N(C)S(C)(=O)=O)c(-c3cnc4ccn(-c5ccc(Cl)cc5)c4c3)cc12` [Compound 50] are 0.0041 µM and 0.0032 µM.
`CNC(=O)c1c(-c2ccc(F)cc2)oc2cc(N(C)S(C)(=O)=O)c(-c3ccc4ccn(-c5ccncc5)c4c3)cc12` [Compound 51]: the results for the IC50 in test [1] and in test [2] were 0.0078 µM and 0.0346 µM, respectively.
In the same order, the values of `CNC(=O)c1c(-c2ccc(F)cc2)oc2cc(N(C)S(C)(=O)=O)c(-c3ccc4ccn(-c5cccnc5)c4c3)cc12` [Compound 52] are 0.0071 µM and 0.0429 µM.
The like results for `CNC(=O)c1c(-c2ccc(F)cc2)oc2cc(N(C)S(C)(=O)=O)c(-c3ccc4c(ccn4-c4ccccc4)c3)cc12` [Compound 53] were, in that order, 0.0125 µM and 0.082 µM.
With `CNC(=O)c1c(-c2ccc(F)cc2)oc2cc(N(C)S(C)(=O)=O)c(-c3ccc4c(ccn4-c4ccc(F)cc4)c3)cc12` [Compound 54], the half-maximal inhibitory concentration (IC50) in test [1] was found to be 0.0141 µM; in test [2], 0.109 µM.
The like results for `CNC(=O)c1c(-c2ccc(F)cc2)oc2cc(N(C)S(C)(=O)=O)c(-c3ccc4c(ccn4-c4cccc(F)c4)c3)cc12` [Compound 55] were, in that order, 0.0238 µM and 0.152 µM.
In the case of `CNC(=O)c1c(-c2ccc(F)cc2)oc2cc(N(C)S(C)(=O)=O)c(-c3ccc4c(ccn4-c4ccc(C(F)(F)F)cc4)c3)cc12` [Compound 56], the values for the IC50 in test [1] and in test [2] were 0.0308 µM and 0.224 µM, respectively.
In the same order, the values of `CNC(=O)c1c(-c2ccc(F)cc2)oc2cc(N(C)S(C)(=O)=O)c(-c3ccc4c(ccn4-c4cccnc4)c3)cc12` [Compound 57] are 0.003 µM and 0.0139 µM.
The like results for `CNC(=O)c1c(-c2ccc(F)cc2)oc2cc(N(C)S(C)(=O)=O)c(-c3ccc4c(ccn4-c4ccncc4)c3)cc12` [Compound 58] were, in that order, 0.0026 µM and 0.0072 µM.
In the same order, the values of `CNC(=O)c1c(-c2ccc(F)cc2)oc2cc(N(C)S(C)(=O)=O)c(-c3ccc4ccn(-c5ccc(F)cc5)c4c3)cc12` [Compound 59] are 0.0052 µM and 0.0153 µM.
For the molecule `CNC(=O)c1c(-c2ccc(F)cc2)oc2cc(N(C)S(C)(=O)=O)c(-c3ccc4ccn(-c5cccc(F)c5)c4c3)cc12` [Compound 60], the results for the half-maximal inhibitory concentration (IC50) in test [1] and in test [2] were 0.0044 µM and 0.0454 µM, respectively.
As to `CNC(=O)c1c(-c2ccc(F)cc2)oc2cc(N(C)S(C)(=O)=O)c(-c3ccc4ccn(-c5ccc(C(F)(F)F)cc5)c4c3)cc12` [Compound 61], the IC50 in test [1] is 0.0101 µM; in test [2], 0.0342 µM.
The like results for `CNC(=O)c1c(-c2ccc(F)cc2)oc2cc(N(C)S(C)(=O)=O)c(-c3ccc4[nH]ccc4c3)cc12` [Compound 62] were, in that order, 0.0229 µM and 0.183 µM.
The like results for `CNC(=O)c1c(-c2ccc(F)cc2)oc2cc(N(C)S(C)(=O)=O)c(-c3ccc4ccn(-c5ccccc5)c4c3)cc12` [Compound 63] were, in that order, 0.0072 µM and 0.0235 µM.
Regarding `CNC(=O)c1c(-c2ccc(F)cc2)oc2cc(N(C)S(C)(=O)=O)c(-c3ccc4ccn(-c5ccc(F)cc5)c4n3)cc12` [Compound 64], the IC50 in test [1] is 0.0761 µM; in test [2], 0.409 µM.
The like results for `CNC(=O)c1c(-c2ccc(F)cc2)oc2cc(N(C)S(C)(=O)=O)c(-c3ccc4ccn(-c5cc(F)cc(F)c5)c4n3)cc12` [Compound 65] were, in that order, 0.115 µM and 1.53 µM.
Consider `CNC(=O)c1c(-c2ccc(F)cc2)oc2cc(N(C)S(C)(=O)=O)c(-c3ccc4ccn(-c5ccc(F)cc5F)c4n3)cc12` [Compound 66], for which the half-maximal inhibitory concentration (IC50) was 0.225 µM in test [1] and 2.27 µM in test [2].
Take `CNC(=O)c1c(-c2ccc(F)cc2)oc2cc(N(C)S(C)(=O)=O)c(-c3ccc4ccn(Cc5ccc(C(F)(F)F)cc5)c4c3)cc12` [Compound 67, 2-(4-fluorophenyl)-N-methyl-6-(N-methylmethylsulfonamido)-5-(1-(4-(trifluoromethyl)benzyl)-1H-indol-6-yl)benzofuran-3-carboxamide]: the IC50 in test [1] is 0.0498 µM; in test [2], 0.132 µM.
On to `CNC(=O)c1c(-c2ccc(F)cc2)oc2cc(N(C)S(C)(=O)=O)c(-c3ccc4ccn(Cc5ccc(F)cc5)c4c3)cc12` [Compound 68], for which the IC50 in test [1] turned out to be 0.0186 µM; in test [2], 0.0542 µM.
The like results for `CNC(=O)c1c(-c2ccc(F)cc2)oc2cc(N(C)S(C)(=O)=O)c(-c3ccc4ccn(CCO)c4c3)cc12` [Compound 69] were, in that order, 0.0174 µM and 0.147 µM.
In the same order, the values of `CNC(=O)c1c(-c2ccc(F)cc2)oc2cc(N(C)S(C)(=O)=O)c(-c3ccc4[nH]cc(-c5ccccc5)c4c3)cc12` [Compound 70, 2-(4-fluorophenyl)-N-methyl-6-(N-methylmethylsulfonamido)-5-(3-phenyl-1H-indol-5-yl)benzofuran-3-carboxamide] are 0.0113 µM and 0.0178 µM.
As to `CNC(=O)c1c(-c2ccc(F)cc2)oc2cc(N(C)S(C)(=O)=O)c(-c3ccc4[nH]cc(-c5ccncc5)c4c3)cc12` [Compound 71], the IC50 in test [1] is 0.0045 µM; in test [2], 0.0215 µM.
As to `CNC(=O)c1c(-c2ccc(F)cc2)oc2cc(N(C)S(C)(=O)=O)c(-c3ccc4[nH]nc(-c5ccc(F)cc5)c4c3)cc12` [Compound 73, 2-(4-fluorophenyl)-5-(3-(4-fluorophenyl)-1H-indazol-5-yl)-N-methyl-6-(N-methylmethylsulfonamido)benzofuran-3-carboxamide], the IC50 in test [1] worked out at 0.0038 µM; in test [2] it was 0.0039 µM.
The like results for `CNC(=O)c1c(-c2ccc(F)cc2)oc2cc(N(C)S(C)(=O)=O)c(-c3ccc4[nH]nc(-c5ccncc5)c4c3)cc12` [Compound 74] were, in that order, 0.0054 µM and 0.0206 µM.
With `CNC(=O)c1c(-c2ccc(F)cc2)oc2cc(N(C)S(C)(=O)=O)c(-c3ccc4[nH]nc(-c5ccc(C(F)(F)F)cc5)c4c3)cc12` [Compound 75], the IC50 is 0.0073 µM in test [1] and 0.008 µM in test [2].
In the same order, the values of `CNC(=O)c1c(-c2ccc(F)cc2)oc2cc(N(C)S(C)(=O)=O)c(-c3ccc4[nH]nc(-c5ccc(Cl)cc5)c4c3)cc12` [Compound 76] are 0.0058 µM and 0.0068 µM.
The like results for `CNC(=O)c1c(-c2ccc(F)cc2)oc2cc(N3CCCC3=O)c(-c3ccc4ncn(-c5ccccc5)c4c3)cc12` [Compound 77, 2-(4-fluorophenyl)-N-methyl-6-(2-oxopyrrolidin-1-yl)-5-(1-phenyl-1H-benzo[d]imidazol-6-yl)benzofuran-3-carboxamide] were, in that order, 0.0326 µM and 0.235 µM.
In the same order, the values of `CNC(=O)c1c(-c2ccc(F)cc2)oc2cc(N(C)S(C)(=O)=O)c(-c3cc(OC)c4nc(N)n(-c5cc(F)cc(F)c5)c4c3)cc12` [Compound 78, 5-(2-amino-1-(3,5-difluorophenyl)-4-methoxy-1H-benzo[d]imidazol-6-yl)-2-(4-fluorophenyl)-N-methyl-6-(N-methylmethylsulfonamido)benzofuran-3-carboxamide] are 0.0053 µM and 0.019 µM.
On to `CNC(=O)c1c(-c2ccc(F)cc2)oc2cc(N(C)S(C)(=O)=O)c(-c3cc(F)c4nc(N)n(-c5cc(F)cc(F)c5)c4c3)cc12` [Compound 79], for which the IC50 turned out to be 0.0031 µM in test [1] and 0.0314 µM in test [2].
In the same order, the values of `CNC(=O)c1c(-c2ccc(F)cc2)oc2cc(N(C)S(C)(=O)=O)c(-c3cc(OC)c4[nH]c(=O)n(-c5cc(F)cc(F)c5)c4c3)cc12` [Compound 80, 5-(3-(3,5-difluorophenyl)-7-methoxy-2-oxo-2,3-dihydro-1H-benzo[d]imidazol-5-yl)-2-(4-fluorophenyl)-N-methyl-6-(N-methylmethylsulfonamido)benzofuran-3-carboxamide] are 0.0066 µM and 0.009 µM.
The like results for `CNC(=O)c1c(-c2ccc(F)cc2)oc2cc(N(C)S(C)(=O)=O)c(-c3cc(F)c4[nH]c(=O)n(-c5cc(F)cc(F)c5)c4c3)cc12` [Compound 81] were, in that order, 0.0052 µM and 0.0303 µM.
On to `CNC(=O)c1c(-c2ccc(F)cc2)oc2cc(N(C)S(C)(=O)=O)c(-c3ccc4[nH]c(=O)n(-c5ccc(F)cc5)c4c3)cc12` [Compound 82], for which the IC50 in test [1] is 0.0049 µM; in test [2] it was 0.023 µM.
The like results for `CNC(=O)c1c(-c2ccc(F)cc2)oc2cc(N(C)S(C)(=O)=O)c(-c3ccc4onc(-c5ccccc5)c4c3)cc12` [Compound 83, 2-(4-fluorophenyl)-N-methyl-6-(N-methylmethylsulfonamido)-5-(3-phenylbenzo[d]isoxazol-5-yl)benzofuran-3-carboxamide] were, in that order, 0.0147 µM and 0.0236 µM.

(Values after patent US20150246902A1, “SUBSTITUED BENZOFURAN COMPOUNDS AND METHODS OF USE THEREOF FOR THE TREATMENT OF VIRAL DISEASES” (priority 2011, published 2015).)
